# Assay results reported in US20240409585A1, “MACROCYCLIC IMMUNOMODULATORS” (priority 2021, published 2024).
# Numbered stars: 1 amine (or outer) side, 2 acyl side, 3 side chain; on linkers, the order of the positions; unused ones are H or OH. Bridge positions count the residues as written; N and C are the ends. Square brackets hold non-standard residues; d marks the D form. Peptide text beside a SMILES is read from it. ξ: configuration not given here. Bip(4'-NHAc) = CC(=O)Nc1ccc(-c2ccc(C[C@H](N)C(=O)O)cc2)cc1; X29 = O=C([C@H](Cc1ccc(-c2cc(F)cc(F)c2)cc1)N[*:1])[*:2]; Bip = N[C@@H](Cc1ccc(-c2ccccc2)cc1)C(=O)O; dPhe(4-Cl) = N[C@H](Cc1ccc(Cl)cc1)C(=O)O; dPhe(3-F) = N[C@H](Cc1cccc(F)c1)C(=O)O; ξPhe(2-Me) = Cc1ccccc1CC(N)C(=O)O; d4Pal = N[C@H](Cc1ccncc1)C(=O)O; dChg = N[C@@H](C(=O)O)C1CCCCC1; dPhg = N[C@@H](C(=O)O)c1ccccc1; dNle = CCCC[C@@H](N)C(=O)O; dNva = CCC[C@@H](N)C(=O)O; NMeA = CN[C@@H](C)C(=O)O; dAbu = CC[C@@H](N)C(=O)O
# Biological target: T1, PE-labeled human PD-L1-Ig binding to Jurkat cell line over-expressing human PD-1 (Jurkat-PD-1) (Homo sapiens, UniProt Q15116)
# T1 construct: expressed in transfected cells; host or cells: Jurkat
# T1 sequence (Q15116 25-288): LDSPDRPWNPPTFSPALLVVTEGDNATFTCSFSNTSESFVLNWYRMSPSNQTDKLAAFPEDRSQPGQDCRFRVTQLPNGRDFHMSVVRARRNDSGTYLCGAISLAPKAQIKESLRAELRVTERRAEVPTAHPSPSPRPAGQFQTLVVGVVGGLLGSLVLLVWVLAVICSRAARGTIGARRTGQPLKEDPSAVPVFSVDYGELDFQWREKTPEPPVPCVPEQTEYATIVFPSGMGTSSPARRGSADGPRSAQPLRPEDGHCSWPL
# Assay: Jurkat-PD-1 Cell Binding High-Content Screening Assay (CBA): Method 1
# Conditions: Jurkat-hPD-1 cells, PE-labeled PD-L1-Ig 20 nM final; read-out: Jurkat HPDL1 PD1 IC50 (uM) (Method 1)
row,SMILES,IC50 [µM]
1,CC(C)C[C@@H]1NC(=O)[C@H](CCCNC(=N)N)NC(=O)[C@@H]([C@H](C)O)NC(=O)[C@H](C)N(C)C(=O)[C@H](CCCNC(=N)N)NC(=O)[C@H](Cc2ccc(-c3ccccc3)cc2)NC(=O)[C@H](C(C)C)NC(=O)[C@H](Cc2c[nH]c3ccccc23)NC(=O)[C@H](CC(=O)O)NC(=O)[C@H](Cc2ccc(O)cc2)NC(=O)[C@H](Cc2ccccc2)NC(=O)CSC[C@@H](C(=O)N[C@@H](C)C(N)=O)NC(=O)[C@H]([C@@H](C)O)NC(=O)[C@H](C(C)C)NC1=O [Compound 1058] ({CH2CO}-FYDWV[Bip]R[NMeA][dT]RLVTCA-NH2; thioether N-14),0.91
2,CC(C)C[C@@H]1NC(=O)[C@H](CCCNC(=N)N)NC(=O)[C@@H](C(C)C)NC(=O)[C@H](C)N(C)C(=O)[C@H](CCCNC(=N)N)NC(=O)[C@H](Cc2ccc(-c3ccccc3)cc2)NC(=O)[C@H](C(C)C)NC(=O)[C@H](Cc2c[nH]c3ccccc23)NC(=O)[C@H](CC(=O)O)NC(=O)[C@H](Cc2ccc(O)cc2)NC(=O)[C@H](Cc2ccccc2)NC(=O)CSC[C@@H](C(=O)N[C@@H](C)C(N)=O)NC(=O)[C@H]([C@@H](C)O)NC(=O)[C@H](C(C)C)NC1=O [Compound 1060] ({CH2CO}-FYDWV[Bip]R[NMeA][dV]RLVTCA-NH2; thioether N-14),0.11
3,CC(C)C[C@@H]1NC(=O)[C@H](CCCNC(=N)N)NC(=O)[C@@H](C2CCCCC2)NC(=O)[C@H](C)N(C)C(=O)[C@H](CCCNC(=N)N)NC(=O)[C@H](Cc2ccc(-c3ccccc3)cc2)NC(=O)[C@H](C(C)C)NC(=O)[C@H](Cc2c[nH]c3ccccc23)NC(=O)[C@H](CC(=O)O)NC(=O)[C@H](Cc2ccc(O)cc2)NC(=O)[C@H](Cc2ccccc2)NC(=O)CSC[C@@H](C(=O)N[C@@H](C)C(N)=O)NC(=O)[C@H]([C@@H](C)O)NC(=O)[C@H](C(C)C)NC1=O [Compound 1061] ({CH2CO}-FYDWV[Bip]R[NMeA][dChg]RLVTCA-NH2; thioether N-14),0.1
4,CC[C@@H](C)[C@H]1NC(=O)[C@H](C)N(C)C(=O)[C@H](CCCNC(=N)N)NC(=O)[C@H](Cc2ccc(-c3ccccc3)cc2)NC(=O)[C@H](C(C)C)NC(=O)[C@H](Cc2c[nH]c3ccccc23)NC(=O)[C@H](CC(=O)O)NC(=O)[C@H](Cc2ccc(O)cc2)NC(=O)[C@H](Cc2ccccc2)NC(=O)CSC[C@@H](C(=O)N[C@@H](C)C(N)=O)NC(=O)[C@H]([C@@H](C)O)NC(=O)[C@H](C(C)C)NC(=O)[C@H](CC(C)C)NC(=O)[C@H](CCCNC(=N)N)NC1=O [Compound 1066] ({CH2CO}-FYDWV[Bip]R[NMeA][dI]RLVTCA-NH2; thioether N-14),0.79
5,CC(=O)Nc1ccc(-c2ccc(C[C@@H]3NC(=O)[C@H](C(C)C)NC(=O)[C@H](Cc4c[nH]c5ccccc45)NC(=O)[C@H](CC(=O)O)NC(=O)[C@H](Cc4ccc(O)cc4)NC(=O)[C@H](Cc4ccccc4)NC(=O)CSC[C@@H](C(=O)N[C@@H](C)C(N)=O)NC(=O)[C@H]([C@@H](C)O)NC(=O)[C@H](C(C)C)NC(=O)[C@H](CC(C)C)NC(=O)[C@H](CCCNC(=N)N)NC(=O)[C@@H](CC(C)C)NC(=O)[C@H](C)N(C)C(=O)[C@H](CCCNC(=N)N)NC3=O)cc2)cc1 [Compound 1067] ({CH2CO}-FYDWV[Bip(4'-NHAc)]R[NMeA][dL]RLVTCA-NH2; thioether N-14),0.12
6,CC(C)C[C@@H]1NC(=O)[C@H](CCCNC(=N)N)NC(=O)[C@@H](CC(C)C)NC(=O)[C@H](C)N(C)C(=O)[C@H](CCCNC(=N)N)NC(=O)[C@H](Cc2ccc(-c3cc(F)cc(F)c3)cc2)NC(=O)[C@H](C(C)C)NC(=O)[C@H](Cc2c[nH]c3ccccc23)NC(=O)[C@H](CC(=O)O)NC(=O)[C@H](Cc2ccc(O)cc2)NC(=O)[C@H](Cc2ccccc2)NC(=O)CSC[C@@H](C(=O)N[C@@H](C)C(N)=O)NC(=O)[C@H]([C@@H](C)O)NC(=O)[C@H](C(C)C)NC1=O [Compound 1068] ({CH2CO}-FYDWV[X29]R[NMeA][dL]RLVTCA-NH2; thioether N-14),0.17

# The next lines start with the values.
row,IC50 [µM],SMILES
1,0.21,CC(C)C[C@@H]1NC(=O)[C@H](CCCNC(=N)N)NC(=O)[C@@H](c2ccccc2)NC(=O)[C@H](C)N(C)C(=O)[C@H](CCCNC(=N)N)NC(=O)[C@H](Cc2ccc(-c3ccccc3)cc2)NC(=O)[C@H](C(C)C)NC(=O)[C@H](Cc2c[nH]c3ccccc23)NC(=O)[C@H](CC(=O)O)NC(=O)[C@H](Cc2ccc(O)cc2)NC(=O)[C@H](Cc2ccccc2)NC(=O)CSC[C@@H](C(=O)N[C@@H](C)C(N)=O)NC(=O)[C@H]([C@@H](C)O)NC(=O)[C@H](C(C)C)NC1=O [Compound 1059] ({CH2CO}-FYDWV[Bip]R[NMeA][dPhg]RLVTCA-NH2; thioether N-14)
2,0.15,CSCC[C@H]1NC(=O)[C@H](C)N(C)C(=O)[C@H](CCCNC(=N)N)NC(=O)[C@H](Cc2ccc(-c3ccccc3)cc2)NC(=O)[C@H](C(C)C)NC(=O)[C@H](Cc2c[nH]c3ccccc23)NC(=O)[C@H](CC(=O)O)NC(=O)[C@H](Cc2ccc(O)cc2)NC(=O)[C@H](Cc2ccccc2)NC(=O)CSC[C@@H](C(=O)N[C@@H](C)C(N)=O)NC(=O)[C@H]([C@@H](C)O)NC(=O)[C@H](C(C)C)NC(=O)[C@H](CC(C)C)NC(=O)[C@H](CCCNC(=N)N)NC1=O [Compound 1062] ({CH2CO}-FYDWV[Bip]R[NMeA][dM]RLVTCA-NH2; thioether N-14)
3,0.06,CCCC[C@H]1NC(=O)[C@H](C)N(C)C(=O)[C@H](CCCNC(=N)N)NC(=O)[C@H](Cc2ccc(-c3ccccc3)cc2)NC(=O)[C@H](C(C)C)NC(=O)[C@H](Cc2c[nH]c3ccccc23)NC(=O)[C@H](CC(=O)O)NC(=O)[C@H](Cc2ccc(O)cc2)NC(=O)[C@H](Cc2ccccc2)NC(=O)CSC[C@@H](C(=O)N[C@@H](C)C(N)=O)NC(=O)[C@H]([C@@H](C)O)NC(=O)[C@H](C(C)C)NC(=O)[C@H](CC(C)C)NC(=O)[C@H](CCCNC(=N)N)NC1=O [Compound 1063] ({CH2CO}-FYDWV[Bip]R[NMeA][dNle]RLVTCA-NH2; thioether N-14)
4,0.1,CCC[C@H]1NC(=O)[C@H](C)N(C)C(=O)[C@H](CCCNC(=N)N)NC(=O)[C@H](Cc2ccc(-c3ccccc3)cc2)NC(=O)[C@H](C(C)C)NC(=O)[C@H](Cc2c[nH]c3ccccc23)NC(=O)[C@H](CC(=O)O)NC(=O)[C@H](Cc2ccc(O)cc2)NC(=O)[C@H](Cc2ccccc2)NC(=O)CSC[C@@H](C(=O)N[C@@H](C)C(N)=O)NC(=O)[C@H]([C@@H](C)O)NC(=O)[C@H](C(C)C)NC(=O)[C@H](CC(C)C)NC(=O)[C@H](CCCNC(=N)N)NC1=O [Compound 1064] ({CH2CO}-FYDWV[Bip]R[NMeA][dNva]RLVTCA-NH2; thioether N-14)
5,0.11,Cc1ccccc1CC1NC(=O)[C@H](C)N(C)C(=O)[C@H](CCCNC(=N)N)NC(=O)[C@H](Cc2ccc(-c3ccccc3)cc2)NC(=O)[C@H](C(C)C)NC(=O)[C@H](Cc2c[nH]c3ccccc23)NC(=O)[C@H](CC(=O)O)NC(=O)[C@H](Cc2ccc(O)cc2)NC(=O)[C@H](Cc2ccccc2)NC(=O)CSC[C@@H](C(=O)N[C@@H](C)C(N)=O)NC(=O)[C@H]([C@@H](C)O)NC(=O)[C@H](C(C)C)NC(=O)[C@H](CC(C)C)NC(=O)[C@H](CCCNC(=N)N)NC1=O (stereo partly drawn) [Compound 1065] ({CH2CO}-FYDWV[Bip]R[NMeA][ξPhe(2-Me)]RLVTCA-NH2; thioether N-14)
6,0.22,CC[C@H]1NC(=O)[C@H](C)N(C)C(=O)[C@H](CCCNC(=N)N)NC(=O)[C@H](Cc2ccc(-c3ccccc3)cc2)NC(=O)[C@H](C(C)C)NC(=O)[C@H](Cc2c[nH]c3ccccc23)NC(=O)[C@H](CC(=O)O)NC(=O)[C@H](Cc2ccc(O)cc2)NC(=O)[C@H](Cc2ccccc2)NC(=O)CSC[C@@H](C(=O)N[C@@H](C)C(N)=O)NC(=O)[C@H]([C@@H](C)O)NC(=O)[C@H](C(C)C)NC(=O)[C@H](CC(C)C)NC(=O)[C@H](CCCNC(=N)N)NC1=O [Compound 1069] ({CH2CO}-FYDWV[Bip]R[NMeA][dAbu]RLVTCA-NH2; thioether N-14)
7,0.63,CC(C)C[C@@H]1NC(=O)[C@H](CCCNC(=N)N)NC(=O)[C@@H](Cc2ccc(Cl)cc2)NC(=O)[C@H](C)N(C)C(=O)[C@H](CCCNC(=N)N)NC(=O)[C@H](Cc2ccc(-c3ccccc3)cc2)NC(=O)[C@H](C(C)C)NC(=O)[C@H](Cc2c[nH]c3ccccc23)NC(=O)[C@H](CC(=O)O)NC(=O)[C@H](Cc2ccc(O)cc2)NC(=O)[C@H](Cc2ccccc2)NC(=O)CSC[C@@H](C(=O)N[C@@H](C)C(N)=O)NC(=O)[C@H]([C@@H](C)O)NC(=O)[C@H](C(C)C)NC1=O [Compound 1070] ({CH2CO}-FYDWV[Bip]R[NMeA][dPhe(4-Cl)]RLVTCA-NH2; thioether N-14)
8,0.13,CC(C)C[C@@H]1NC(=O)[C@H](CCCNC(=N)N)NC(=O)[C@@H](Cc2cccc(F)c2)NC(=O)[C@H](C)N(C)C(=O)[C@H](CCCNC(=N)N)NC(=O)[C@H](Cc2ccc(-c3ccccc3)cc2)NC(=O)[C@H](C(C)C)NC(=O)[C@H](Cc2c[nH]c3ccccc23)NC(=O)[C@H](CC(=O)O)NC(=O)[C@H](Cc2ccc(O)cc2)NC(=O)[C@H](Cc2ccccc2)NC(=O)CSC[C@@H](C(=O)N[C@@H](C)C(N)=O)NC(=O)[C@H]([C@@H](C)O)NC(=O)[C@H](C(C)C)NC1=O [Compound 1071] ({CH2CO}-FYDWV[Bip]R[NMeA][dPhe(3-F)]RLVTCA-NH2; thioether N-14)
9,0.18,CC(C)C[C@@H]1NC(=O)[C@H](CCCNC(=N)N)NC(=O)[C@@H](Cc2ccncc2)NC(=O)[C@H](C)N(C)C(=O)[C@H](CCCNC(=N)N)NC(=O)[C@H](Cc2ccc(-c3ccccc3)cc2)NC(=O)[C@H](C(C)C)NC(=O)[C@H](Cc2c[nH]c3ccccc23)NC(=O)[C@H](CC(=O)O)NC(=O)[C@H](Cc2ccc(O)cc2)NC(=O)[C@H](Cc2ccccc2)NC(=O)CSC[C@@H](C(=O)N[C@@H](C)C(N)=O)NC(=O)[C@H]([C@@H](C)O)NC(=O)[C@H](C(C)C)NC1=O [Compound 1072] ({CH2CO}-FYDWV[Bip]R[NMeA][d4Pal]RLVTCA-NH2; thioether N-14)
